Reference: US20120115896A1, “ISOGENIC HUMAN CELL LINES COMPRISING MUTATED CANCER ALLELES AND PROCESS USING THE CELL LINES” (priority 2008, published 2012)

Columns and labels:
[1] = system: HCT 116 colorectal cancer cells and derivative clones (HKh-2, HKe-3, HK2-6, PIK3CA WT/mutant); test: Viability (ATP assay) of HCT 116 cells and isogenic KRAS / PIK3CA derivative clones
Description: (§1) Results are expressed as percent of viability compared to cells treated with DMSO only ('control') and represent mean±SD of at least three independent observations.
(§2) After serial dilutions, 100 μl of drugs in serum free medium were added to cells with a multichannel pipette. Vehicle and medium-only containing wells were added as controls. Plates were incubated at 37° C. in 5% CO2 for 96 h, after which cell viability was assessed by ATP content using the CellTiter-Glo® Luminescent Assay (Promega Madison, Wis.).

[2] = system: DLD-1 colorectal cancer cells and derivative clones (DKO-1, DKO-3, DKO-4, PIK3CA WT/mutant); test: Viability (ATP assay) of DLD-1 cells and isogenic KRAS / PIK3CA derivative clones
Description: as §1, §2

[3] = system: hTERT-HME1 cells of the indicated genotype (WT, PIK3CA KI, KRAS G13D, DKI KRAS G13D + PIK3CA H1047R); test: Cell cycle analysis by flow cytometry (propidium iodide) after everolimus 500 nM for 48 h; assay type: cell-based, human; settings: for cells in G1 phase, Mean / cells in G2/M phase, Mean / cells in S phase, Mean / cells in G2 + S, Mean / cells in Sub-G1, Mean: FACS
Description: (A) CFSE-labelled cells were analyzed by flow cytometry at the indicated time-points (top panels). The maximum fluorescence intensity for all samples was recorded at day 0 (depicted in filled black). […] (B) Cells of the indicated genotype were incubated with everolimus 500 nM for 48 h, after which cell cycle was analyzed by flow cytometry. No increase of the subG1 apoptotic fraction of cells was observed upon treatment. Representative data from 3 independent experiments are shown.
For time-course experiments, on the initial day hTERT-HME1 cells were labelled with 3 μM CFSE (5-(and -6)-carboxyfluorescein diacetate, succinimidyl ester, Invitrogen C1157, Milan, Italy) in PBS in the dark for 30 minutes. After washing and recording baseline fluorescence, cells were plated in media containing 1% FBS and 2 ng/mL EGF, and treatment with everolimus was initiated, replenishing the drug on a daily basis. For cell cycle analysis, trypsinized cells were washed with PBS and cell nuclei DNA were stained with propidium iodide (PI) for at least 120 minutes using a commercial kit (DNA con 3, Consul T.S., Orbassano, Italy).
All fluorescence levels were detected by flow cytometry on a FACSCalibur (Becton Dickinson, Milan, Italy) and analyzed using CellQuest software. The number of events collected for each sample varied between 15,000 and 50,000. After doublets exclusion, an extended analysis of the DNA content and calculations of the percentage of cells in each phase of the cell cycle were performed on ModFit Lt software (Verity Software House, Topsham, Me.).
To shed light on the preferential effect induced by everolimus in PIK3CA KI clones, the present inventors also performed FACS analysis. […] The data shown in table 7 are the results of hTERT-HME1 cells of the indicated genotype incubated for 48 h with everolimus (500 nM), wherein the effect on cell cycle was analyzed by FACS. […] Accordingly, the proportions of cells in the S- and G2/M-phases decreased. Means of at least 4 independent experiments are shown. Significance by paired t test was taken at p<0.01.
To further explore the role of mutant KRAS on everolimus' response, the present inventors recapitulated the genetic milieu of the HCT116 colorectal cancer cells in hTERT-HME1 cells, by introducing via homologous recombination both KRAS G13D and PIK3CA H1047R alleles in their genome. This approach generated double-KI (DKI) cells, in which each mutation is expressed under the corresponding gene's own promoter. […] Means of at least 4 independent experiments are shown. Significance by paired t test was taken at p<0.01.

[4] = system: hTERT-HME1 cells carrying PIK3CA (E545K and H1047R) KI; test: Drug assay: cell viability by ATP content (96 h) and Hoechst/propidium iodide staining, KI versus parental cells; ΔKI pharmarray analysis; settings: hTERT-HME1
[5] = system: phosphorylation of p70S6K, RpS6, AKT and MAPK in HCT 116 and KRAS WT/- HKe-3 cells; test: Biochemical effects of everolimus: immunoblot and ELISA of phospho-proteins; assay type: cell-based, human; settings: everolimus 500 nM, 30 minutes
Description: (A, D) After 30 minutes'treatment with everolimus 500 nM, HCT 116 parental cells and its derivative KRAS WT/-HKe-3 clone were lysed and immunoblotted with the anti-phospho-P70S6K, totalP70S6K, phospho-MAPK and total MAPK (B, C, E) The same lysates were used also for ELISA measurements of total AKT, phosphoAKT (Thr308), phosphoAKT (Ser473), total RpS6 and phosphoRpS6 levels. Numbers indicate the ratio of phosphorylated protein related to total protein levels and are normalized respect to the untreated (NT) HCT 116 cells.
SDS PAGE was performed using Invitrogen Precasted gels (Invitrogen Carlsbad, Calif.); western blotting transfer onto Hybond-C Extra membranes (Amersham, Amersham Biosciences, Uppsala, Sweden) was done following standard methods. The primary antibodies used for immunoblotting were: Anti-AKT (Cell Signaling, Technology, Danvers, Mass.); Anti-phospho-AKT S473 (Cell Signaling, Technology, Danvers, Mass.); Anti-Actin and Anti-Vinculin (Sigma-Aldrich, St. Louis, Mo.); Phospho-p44/42 Map kinase (Thr202/Tyr204) (Cell Signaling, Technology, Danvers, Mass.); Anti-phospho-EGFR Receptor (Tyr 1068) and Anti EGFR Receptor (Cell Signaling Technology, Danvers, Mass.).

[6] = hTERT-HME1 DKI KRAS G13D + PIK3CA H1047R, propidium iodide
[7] = hTERT-HME1 KI KRAS G13D, propidium iodide

CO[C@H]1C[C@@H]2CC[C@@H](C)[C@@](O)(O2)C(=O)C(=O)N2CCCC[C@H]2C(=O)O[C@H]([C@H](C)C[C@@H]2CC[C@@H](OCCO)[C@H](OC)C2)CC(=O)[C@H](C)/C=C(\C)[C@@H](O)[C@@H](OC)C(=O)[C@H](C)C[C@H](C)/C=C/C=C/C=C/1C [everolimus, Everolimus]
response of HCT 116 parental and isogenic cells carrying mutated KRAS ([1]; FIG. 7B): equally resistant | response of HCT 116 derivative cells retaining only the KRAS WT allele ([1]; HKh-2 and HKe-3, FIG. 7B): sensitive to everolimus | response of HCT 116 cells in which PIK3CA H1047R had been deleted ([1]; all clones retain mutated KRAS, FIG. 14A): non-responsive to everolimus | response of DLD-1 clones knock-out for the mutated KRAS D13 allele versus parental / DKO-1 ([2]; DKO-3 and DKO-4, FIG. 7C): more sensitive to everolimus | response of DLD-1 cells knock-out for the mutated PIK3CA K545 allele ([2]; FIG. 14B): as sensitive to everolimus as either the corresponding parental cells or a clone retaining only the PIK3CA mutated allele | cell cycle response of DKI cells (KRAS G13D and PIK3CA H1047R) [3]: cell cycle response comparable to that observed in the parental WT population | cells in G1 phase, Mean [3, 6]: 77.5 | cells in G2/M phase, Mean [3, 6]: 10.5 | cells in S phase, Mean [3, 6]: 12.0 | cells in G1 phase, Mean [3, 7]: 75.7 | cells in G2/M phase, Mean [3, 7]: 13.1 | cells in S phase, Mean [3, 7]: 11.2 | cells in G1 phase, Mean ([3]; hTERT-HME1 KI PIK3CA E545K): 78.5 | cells in G2 + S, Mean ([3]; hTERT-HME1 KI PIK3CA E545K): 21.5 | cells in G2/M phase, Mean ([3]; hTERT-HME1 KI PIK3CA E545K): 12.7 | cells in S phase, Mean ([3]; hTERT-HME1 KI PIK3CA E545K): 8.8 | cells in Sub-G1, Mean ([3]; hTERT-HME1 KI PIK3CA E545K): 0.9 | cells in G1 phase, Mean ([3]; hTERT-HME1 KI PIK3CA H1047R): 88.7 | cells in G2 + S, Mean ([3]; hTERT-HME1 KI PIK3CA H1047R): 11.3 | cells in G2/M phase, Mean ([3]; hTERT-HME1 KI PIK3CA H1047R): 4.9 | cells in S phase, Mean ([3]; hTERT-HME1 KI PIK3CA H1047R): 6.4 | cells in Sub-G1, Mean ([3]; hTERT-HME1 KI PIK3CA H1047R): 0.6 | cells in G1 phase, Mean ([3]; hTERT-HME1 WT): 75.7 | cells in G2 + S, Mean ([3]; hTERT-HME1 WT): 24.3 | cells in G2/M phase, Mean ([3]; hTERT-HME1 WT): 14.2 | cells in S phase, Mean ([3]; hTERT-HME1 WT): 10.1 | cells in Sub-G1, Mean ([3]; hTERT-HME1 WT): 0.9 | apoptosis ([3]; vehicle versus drug-treated, FIG. 18B): almost undetectable | pharmarray: differential response of PIK3CA mutated cells versus WT ([4]; FIG. 5G): affecting preferentially | antiproliferative effect on PIK3CA KI clones versus WT ([4]; wide range of concentrations, FIG. 6A): significant antiproliferative effect only in mutated cells | MAPK phosphorylation in drug treated HKe-3 cells compared to parental ([5]; FIG. 15A): higher level of MAPK phosphorylation | levels of activated RpS6 ([5]; FIG. 15E): decreased accordingly | phosphorylation of p70S6K ([5]; parental and KRAS D13 deleted cells, FIG. 15D): abrogated
